System: primary rat mixed cortical cells
Test: In vitro myelination assay (MBP positive myelin strands, fold myelin pixels above background)
Format: cell-based
Conditions: Rattus norvegicus, read-out: Fold myelin pixels above background relative to baseline of no added compound; for fold induction at 1 µM: 1.0 μM compound; for fold induction at 10 µM: 10.0 μM compound
Summary of the method: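 Myelination read as total MBP-immunopositive strand pixels per well, imaged at 10× after fixation on day 14 and expressed relative to untreated wells, at 1.0 and 10.0 μM. Cells: dissociated postnatal day 1 rat cortex, cultured two weeks with compound, re-dosed at days 6 and 10.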

SMILES	fold induction at 1 µM	fold induction at 10 µM
Cc1cc(Nc2ncn(-c3cc(F)cc(F)c3)n2)cc(N2CCOC(COC(C)C)C2)c1 (stereo not drawn) [Compound 927, 1-(3,5-difluorophenyl)-N-[3-[2-(isopropoxymethyl)morpholin-4-yl]-5-methyl-phenyl]-1,2,4-triazol-3-amine]	10 to 100	1 to 10
Cc1cc(NCCN2CCOC(C)C2)cc(Nc2ncn(-c3cc(F)cc(F)c3)n2)c1 (stereo not drawn) [Compound 928, N1-[1-(3,5-difluorophenyl)-1,2,4-triazol-3-yl]-5-methyl-N3-[2-(2-methylmorpholin-4-yl)ethyl]benzene-1,3-diamine]	10 to 100	≤ 1
[2H]C(C)(C)N1CCN(c2cc(C)cc(Nc3ncn(-c4ccccc4)n3)c2)CC1 [Compound 929, N-[3-[4-(1-deuterio-1-methyl-ethyl)piperazin-1-yl]-5-methyl-phenyl]-1-phenyl-1,2,4-triazol-3-amine]	10 to 100	≤ 1
COCCN1CCC(Nc2cc(C)cc(Nc3ncn(-c4cc(F)cc(F)c4)n3)c2)CC1 [Compound 930, N3-[1-(3,5-difluorophenyl)-1,2,4-triazol-3-yl]-N1-[1-(2-methoxyethyl)-4-piperidyl]-5-methyl-benzene-1,3-diamine]	10 to 100	≤ 1
Cc1cc(Nc2ncn(-c3cc(F)cc(F)c3)n2)cc(NC(C)CN2CCOCC2)c1 (stereo not drawn) [Compound 931, N3-[1-(3,5-difluorophenyl)-1,2,4-triazol-3-yl]-5-methyl-N1-(1-methyl-2-morpholino-ethyl)benzene-1,3-diamine]	10 to 100	≤ 1
Cc1cc(NCC2COCCO2)cc(Nc2ncn(-c3cc(F)cc(F)c3)n2)c1 (stereo not drawn) [Compound 932, N1-[1-(3,5-difluorophenyl)-1,2,4-triazol-3-yl]-N3-(1,4-dioxan-2-ylmethyl)-5-methyl-benzene-1,3-diamine]	1 to 10	≤ 1
Cc1cc(Nc2ncn(-c3cc(F)cc(F)c3)n2)cc(N2CCC(OCCN(C)C)CC2)c1 [Compound 933, 1-(3,5-difluorophenyl)-N-[3-[4-[2-(dimethylamino)ethoxy]-1-piperidyl]-5-methyl-phenyl]-1,2,4-triazol-3-amine]	1 to 10	≤ 1
COCCN1CC(Nc2cc(C)cc(Nc3ncn(-c4cc(F)cc(F)c4)n3)c2)CC1=O (stereo not drawn) [Compound 934, 4-[3-[[1-(3,5-difluorophenyl)-1,2,4-triazol-3-yl]amino]-5-methyl-anilino]-1-(2-methoxyethyl)pyrrolidin-2-one]	10 to 100	≤ 1
[2H]C1([2H])N(CC(F)F)C([2H])([2H])C([2H])([2H])N(c2cc(C)cc(Nc3ncn(-c4cc(F)cc(F)c4)n3)c2)C1([2H])[2H] [Compound 935, 1-(3,5-difluorophenyl)-N-[3-methyl-5-[2,2,3,3,5,5,6,6-octadeuterio-4-(2,2-difluoroethyl)piperazin-1-yl]phenyl]-1,2,4-triazol-3-amine]	10 to 100	
Cc1cc(Nc2ncn(-c3cc(F)cc(F)c3)n2)cc(N2CCN(CC3CCOC3)CC2)c1 (stereo not drawn) [Compound 936, 1-(3,5-difluorophenyl)-N-[3-methyl-5-[4-(tetrahydrofuran-3-ylmethyl)piperazin-1-yl]phenyl]-1,2,4-triazol-3-amine]	10 to 100	≤ 1
COCC1(CNc2cc(C)cc(Nc3ncn(-c4cc(F)cc(F)c4)n3)c2)CC1 [Compound 937, N1-[1-(3,5-difluorophenyl)-1,2,4-triazol-3-yl]-N3-[[1-(methoxymethyl)cyclopropyl]methyl]-5-methyl-benzene-1,3-diamine]	1 to 10	≤ 1
Cc1cc(NCC2(C(=O)N(C)C)CCCC2)cc(Nc2ncn(-c3cc(F)cc(F)c3)n2)c1 [Compound 938, 1-[[3-[[1-(3,5-difluorophenyl)-1,2,4-triazol-3-yl]amino]-5-methyl-anilino]methyl]-N,N-dimethyl-cyclopentanecarboxamide]	1 to 10	≤ 1
Cc1cc(Nc2ncn(-c3cc(F)cc(F)c3)n2)cc(NC2CCCCC2N2CCOCC2)c1 (stereo not drawn) [Compound 939, N3-[1-(3,5-difluorophenyl)-1,2,4-triazol-3-yl]-5-methyl-N1-(2-morpholinocyclohexyl)benzene-1,3-diamine]	1 to 10	≤ 1
Cc1cc(NCCN2CC[S+]([O-])CC2)cc(Nc2ncn(-c3cc(F)cc(F)c3)n2)c1 [Compound 940, N1-[1-(3,5-difluorophenyl)-1,2,4-triazol-3-yl]-5-methyl-N3-[2-(1-oxo-1,4-thiazinan-4-yl)ethyl]benzene-1,3-diamine]	10 to 100	1 to 10
Cc1cc(Nc2ncn(-c3cc(F)cc(F)c3)n2)cc(N2CCN(CC(C)(C)O)C(C)C2)c1 (stereo not drawn) [Compound 941, 1-[4-[3-[[1-(3,5-difluorophenyl)-1,2,4-triazol-3-yl]amino]-5-methyl-phenyl]-2-methyl-piperazin-1-yl]-2-methyl-propan-2-ol]	1 to 10	1 to 10
Cc1cc(NCC2CC2)cc(Nc2ncn(-c3cc(F)cc(F)c3)n2)c1 [Compound 942, N3-(cyclopropylmethyl)-N1-[1-(3,5-difluorophenyl)-1,2,4-triazol-3-yl]-5-methyl-benzene-1,3-diamine]	1 to 10	≤ 1
Cc1cc(Nc2ncn(-c3cc(F)cc(F)c3)n2)cc(N2CCN(CCN3CCCC3)CC2)c1 [Compound 944, 1-(3,5-difluorophenyl)-N-[3-methyl-5-[4-(2-pyrrolidin-1-ylethyl)piperazin-1-yl]phenyl]-1,2,4-triazol-3-amine]	1 to 10	≤ 1
Cc1cc(Nc2ncn(-c3cc(F)cc(F)c3)n2)cc(N2CCN(CCCN3CCCC3)CC2)c1 [Compound 945, 1-(3,5-difluorophenyl)-N-[3-methyl-5-[4-(3-pyrrolidin-1-ylpropyl)piperazin-1-yl]phenyl]-1,2,4-triazol-3-amine]	1 to 10	≤ 1
Cc1cc(NCC2CN(C(CO)CO)C2)cc(Nc2ncn(-c3cc(F)cc(F)c3)n2)c1 [Compound 946, 2-[3-[[3-[[1-(3,5-difluorophenyl)-1,2,4-triazol-3-yl]amino]-5-methyl-anilino]methyl]azetidin-1-yl]propane-1,3-diol]	≤ 1	≤ 1
[2H]C1([2H])N(CC)C([2H])([2H])C([2H])([2H])N(c2cc(C)cc(Nc3ncn(-c4cc(F)cc(F)c4)n3)c2)C1([2H])[2H] [Compound 947, 1-(3,5-difluorophenyl)-N-[3-methyl-5-(2,2,3,3,5,5,6,6-octadeuterio-4-ethyl-piperazin-1-yl)phenyl]-1,2,4-triazol-3-amine]	1 to 10	≤ 1
Cc1cc(Nc2ncn(-c3cc(F)cc(F)c3)n2)cc(N2CCC(N(C)C)CC2)c1 [Compound 948, 1-[3-[[1-(3,5-difluorophenyl)-1,2,4-triazol-3-yl]amino]-5-methyl-phenyl]-N,N-dimethyl-piperidin-4-amine]	10 to 100	≤ 1
Cc1cc(Nc2ncn(-c3cc(F)cc(F)c3)n2)cc(N2CCN(CC3COCCO3)CC2)c1 (stereo not drawn) [Compound 949, 1-(3,5-difluorophenyl)-N-[3-[4-(1,4-dioxan-2-ylmethyl)piperazin-1-yl]-5-methyl-phenyl]-1,2,4-triazol-3-amine]	10 to 100	10 to 100
Cc1cc(Nc2ncn(-c3cc(F)cc(F)c3)n2)cc(N2CCC(OCCF)CC2)c1 [Compound 950, 1-(3,5-difluorophenyl)-N-[3-[4-(2-fluoroethoxy)-1-piperidyl]-5-methyl-phenyl]-1,2,4-triazol-3-amine]	10 to 100	1 to 10
Cc1cc(NCC2(N3CCOCC3)CC2)cc(Nc2ncn(-c3cc(F)cc(F)c3)n2)c1 [Compound 951, N1-[1-(3,5-difluorophenyl)-1,2,4-triazol-3-yl]-5-methyl-N3-[(1-morpholinocyclopropyl)methyl]benzene-1,3-diamine]	1 to 10	≤ 1
Cc1cc(Nc2ncn(-c3cnccn3)n2)c(F)c(OC2CCOC2)c1 (stereo not drawn) [Compound 952, N-(2-fluoro-5-methyl-3-tetrahydrofuran-3-yloxy-phenyl)-1-pyrazin-2-yl-1,2,4-triazol-3-amine]	1 to 10	1 to 10
Cc1cc(NC2CCOC2)cc(Nc2ncn(-c3cc(F)cc(F)c3)n2)c1F (stereo not drawn) [Compound 953, N3-[1-(3,5-difluorophenyl)-1,2,4-triazol-3-yl]-4-fluoro-5-methyl-N1-tetrahydrofuran-3-yl-benzene-1,3-diamine]	1 to 10	1 to 10
Cc1cc(Nc2ncn(-c3cc(F)cc(F)c3)n2)cc(N2CCOC(CN3CCN(C)CC3)C2)c1 (stereo not drawn) [Compound 954, 1-(3,5-difluorophenyl)-N-[3-methyl-5-[2-[(4-methylpiperazin-1-yl)methyl]morpholin-4-yl]phenyl]-1,2,4-triazol-3-amine]	1 to 10	≤ 1
Cc1cc(Nc2ncn(-c3cccc(F)c3)n2)c(F)c(N2CCN(C3COC3)CC2)c1 [Compound 955, N-[2-fluoro-5-methyl-3-[4-(oxetan-3-yl)piperazin-1-yl]phenyl]-1-(3-fluorophenyl)-1,2,4-triazol-3-amine]	10 to 100	1 to 10
Cc1cc(Nc2ncn(-c3cc(F)cc(F)c3)n2)cc(N2CCN(C3CCN(C)CC3)CC2)c1 [Compound 956, 1-(3,5-difluorophenyl)-N-[3-methyl-5-[4-(1-methyl-4-piperidyl)piperazin-1-yl]phenyl]-1,2,4-triazol-3-amine]	≤ 1	≤ 1

Reference: patent US10766869B2, “Triazoles for the treatment of demyelinating dieases” (Vertex Pharmaceuticals Incorporated, priority 2015, dated 2020)
